Broadly, the IC50 is the point on the concentration scale where inhibition reaches its midpoint. The GI50 is the concentration at which growth is held to half of that of the control.

Each structure is given as a SMILES string.

This note sets out measurements from patent US20240226107A1, “UBIQUITIN-SPECIFIC PROTEASE 1 (USP1) INHIBITOR” (SIMCERE ZAIMING PHARMACEUTICAL CO., LTD., priority 2021, published 2024).

In test [1] the target is USP1 (Recombinant Human His6-USP1/His6-UAF1 Complex Protein) (Homo sapiens (Human), UniProt O94782). Put plainly: In vitro activity assay for USP1 (Ub-CHOP2-Reporter deubiquitination assay). Type of test: biochemical. As to conditions: 0.5 h incubation at room temperature, read-out: In vitro inhibitory activity of USP1 IC50. The method, then:
The assay kit (Ub-CHOP2-Reporter Deubiquitination Assay Kit) was purchased from Lifesensors, with Cat. No. of PR1101. The assay kit was subpackaged and stored at −80° C.
Each compound to be tested was dissolved with DMSO to 10 mM. The compound and pure DMSO (with a total volume of 50 nL) were loaded to each well of the 384-well plate by using an ECHO instrument to obtain gradient-diluted sample concentrations at different ratios. The enzyme was diluted with a freshly prepared reaction solution (20 mM Tris-HCl (pH 8.0), 2 mM CaCl2, 2 mM β-mercaptoethanol, 0.05% CHAPS, and ddH2O). To each well, 5 μL of diluted enzyme reaction solution was added, then the plate was centrifuged and oscillated to mix the enzyme and the compound, and the mixture was centrifuged again and placed on ice. The kit reporter system and the substrate were diluted with the reaction solution, then 5 μL of diluted liquid was added to each well, and mixed by centrifugation. The mixture was incubated at room temperature for 0.5 h. […] The inhibitory activity (IC50 values) of the compound on enzyme activity was calculated by using a four-parameter Logistic Model. […] A, B, C, and D are four parameters.

For test [2], the system named is MDA-MB-436 cells.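 Also: MDA-MB-436 proliferation over 7 days with compound, viability read as ATP luminescence (CellTiter-Glo), inhibition relative to DMSO-only wells, day 0 signal as background, GI50 from four-parameter fit.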
Method: Assay based on CellTiter-Glo luminescent cell viability assay system.
The assay kit (CellTiter-Glo® Luminescent Cell Viability Assay) was purchased from Promega, with Cat. No. of G7573, and was stored at −30° C. after subpackage. The kit is a homogeneous assay method for assaying the number of viable cells in a culture based on quantitative determination of ATP. The kit produces a luminescence signal proportional to the amount of ATP present, and the amount of ATP is directly proportional to the number of cells in the culture.
The cultured cells were trypsinized, collected and centrifuged, then resuspended at an adjusted concentration in a culture solution (DMEM+10% FBS), and cultured overnight on a 384-well plate (400 cells/20 μl/well) in a cell incubator with 5% CO2 at 37° C. An ECHO instrument was used to added the compound and pure DMSO onto each well of the 384-well plate. The total volume of the compound and DMSO is 100 nL, and the instrument obtains gradient diluted sample concentrations through different ratios. To each well, 30 μL of culture solution was added, and after mixing by centrifugal oscillation and re-centrifugation, the cells were cultured in a cell incubator for 7 days (one column of cells was subjected to CTG assay on the day of dosing). After day 7, 25 μL of CTG assay solution was added to each well, and after mixing by centrifugal oscillation and re-centrifugation, the cells were placed at room temperature away from light for 10 min. In terms of chemiluminescence signals, an Envision plate reader (PerkinElmer, emission wavelength: 400-700 nm) was used to measure a signal in each well. The chemiluminescence value [RLU]cpd on day 7 was obtained for the treatment group, the chemiluminescence value [RLU]cell on day 7 was obtained for the non-treatment group (given DMSO only), and the chemiluminescence value [RLU]background on day 0 was obtained for the parallel non-treatment group (given DMSO only) by CTG assay on day 0. […] In the following equation, x represents the concentration of the compound in a logarithmic form; and F(x) represents an effect value (inhibition rate of proliferation at the concentration): F(x)=(A+((B−A)/(1+((C/x)^D)))). A, B, C, and D are four parameters.

Sequence of USP1 (Recombinant Human His6-USP1/His6-UAF1 Complex Protein) (O94782 whole entry): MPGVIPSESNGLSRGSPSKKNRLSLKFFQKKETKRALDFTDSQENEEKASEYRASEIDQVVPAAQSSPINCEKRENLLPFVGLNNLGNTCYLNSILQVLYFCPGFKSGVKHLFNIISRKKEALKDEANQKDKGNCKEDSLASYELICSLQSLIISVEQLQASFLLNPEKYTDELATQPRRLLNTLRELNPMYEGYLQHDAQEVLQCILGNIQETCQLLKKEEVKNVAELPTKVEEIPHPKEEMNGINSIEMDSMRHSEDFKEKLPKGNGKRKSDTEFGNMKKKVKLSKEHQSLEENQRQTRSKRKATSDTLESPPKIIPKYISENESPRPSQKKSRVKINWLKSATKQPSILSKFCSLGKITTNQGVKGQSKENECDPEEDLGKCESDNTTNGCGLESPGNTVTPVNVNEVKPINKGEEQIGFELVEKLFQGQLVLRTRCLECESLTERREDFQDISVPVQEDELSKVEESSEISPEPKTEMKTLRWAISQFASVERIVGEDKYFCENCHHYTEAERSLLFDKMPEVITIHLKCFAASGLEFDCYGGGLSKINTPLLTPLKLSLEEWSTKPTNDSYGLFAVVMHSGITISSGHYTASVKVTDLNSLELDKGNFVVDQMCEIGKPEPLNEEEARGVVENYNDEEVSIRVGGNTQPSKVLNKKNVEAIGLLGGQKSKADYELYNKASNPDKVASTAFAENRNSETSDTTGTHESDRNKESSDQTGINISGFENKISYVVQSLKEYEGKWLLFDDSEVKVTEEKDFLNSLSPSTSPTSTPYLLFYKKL
Sequence of USP1 (Recombinant Human His6-USP1/His6-UAF1 Complex Protein) (Q8TAF3 whole entry partner): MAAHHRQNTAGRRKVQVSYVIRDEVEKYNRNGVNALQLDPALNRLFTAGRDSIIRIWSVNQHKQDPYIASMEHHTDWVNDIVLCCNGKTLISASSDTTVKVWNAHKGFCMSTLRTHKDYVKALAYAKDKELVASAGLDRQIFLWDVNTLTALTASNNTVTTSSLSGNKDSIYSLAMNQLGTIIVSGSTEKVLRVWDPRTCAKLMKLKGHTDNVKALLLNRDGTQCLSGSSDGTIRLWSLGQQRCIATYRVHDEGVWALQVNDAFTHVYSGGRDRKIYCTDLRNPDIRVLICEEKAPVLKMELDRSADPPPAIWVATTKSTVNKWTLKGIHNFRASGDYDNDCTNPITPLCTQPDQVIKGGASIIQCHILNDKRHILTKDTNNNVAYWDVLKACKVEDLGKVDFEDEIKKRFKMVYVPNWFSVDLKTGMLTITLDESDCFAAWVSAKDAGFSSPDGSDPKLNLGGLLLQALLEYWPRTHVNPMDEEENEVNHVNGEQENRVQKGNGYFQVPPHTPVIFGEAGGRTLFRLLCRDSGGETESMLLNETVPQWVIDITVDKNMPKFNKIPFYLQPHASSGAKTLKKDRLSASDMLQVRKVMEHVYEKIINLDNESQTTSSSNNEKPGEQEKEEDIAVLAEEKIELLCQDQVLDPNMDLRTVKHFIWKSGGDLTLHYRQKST

Regarding `COc1ncnc(C2CC2)c1-c1ncc2c(n1)N(Cc1cc(F)c(-c3nc(C(F)(F)F)cn3C)cc1F)CCO2` [Compound 63], the IC50 in test [1] came to 0.0113 µM. Growth in test [2] was halved (GI50) at 0.0245 µM.
On the same counts, the results for `COc1ncnc(C2CC2)c1-c1ncc2c(n1)N(Cc1ccc(-c3nc(C(F)(F)F)cn3C)cc1)C(=O)OC2C` (stereo not shown) [Compound 81, 7-(4-cyclopropyl-6-methoxypyrimidin-5-yl)-4-methyl-1-(4-(1-methyl-4-(trifluoromethyl)-1H-imidazol-2-yl)benzyl)-1,4-dihydro-2H-pyrimido[4,5-d][1,3]oxazin-2-one] are 0.0272 µM and 0.0693 µM.
Turning to `COc1ncnc(C2CC2)c1-c1ncc2c(n1)N(Cc1ccc(-c3nc(C(F)(F)F)cn3C)cc1)C(C)CO2` (stereo not shown) [Compound 23, 2-(4-cyclopropyl-6-methoxypyrimidin-5-yl)-7-methyl-8-(4-(1-methyl-4-(trifluoromethyl)-1H-imidazol-2-yl)benzyl)-7,8-dihydro-6H-pyrimido[5,4-b][1,4]oxazine], the IC50 in test [1] came out at 0.0219 µM. In test [2], this compound registered a GI50 of 0.0325 µM.
On the same counts, the results for `COc1ncnc(C2CC2)c1-c1cc2c(cn1)OCCN2Cc1ccc(-c2nc(C(F)(F)F)cn2C)cc1` [Compound 3, 7-(4-cyclopropyl-6-methoxypyrimidin-5-yl)-1-(4-(1-methyl-4-(trifluoromethyl)-1H-imidazol-2-yl)benzyl)-2,3-dihydro-1H-pyrido[3,4-b][1,4]oxazine] are 0.0213 µM and 0.0473 µM.
On the same counts, the results for `CCn1cc(C(F)(F)F)nc1-c1ccc(CN2CC(=O)N(C3CC3)c3cnc(-c4c(OC)ncnc4C4CC4)nc32)cc1F` [Compound 73, 2-(4-cyclopropyl-6-methoxypyrimidin-5-yl)-8-(3-fluoro-4-(1-ethyl-4-(trifluoromethyl)-1H-imidazol-2-yl)benzyl)-5-cyclopropyl-7,8-dihydropteridin-6(5H)-one] are 0.0452 µM and 0.048 µM.
On the same counts, the results for `COc1ncnc(C2CC2)c1-c1ncc2c(n1)N(Cc1ccc(-c3nc(C(F)(F)F)cn3C)cc1)C1CCCN1C2=O` (stereo not shown) [Compound 42, 2-(4-cyclopropyl-6-methoxypyrimidin-5-yl)-10-(4-(1-methyl-4-(trifluoromethyl)-1H-imidazol-2-yl)benzyl)-8,9,9a,10-tetrahydropyrimido[4,5-d]pyrrolo[1,2-a]pyrimidin-5(7H)-one] are 0.0866 µM and 0.474 µM.
In the case of `COc1ncnc(C2CC2)c1-c1ncc2c(n1)N(Cc1ccc(-c3nc(C(F)(F)F)cn3C)cc1)CC(=O)N2C(C)C` [Compound 78, 2-(4-cyclopropyl-6-methoxypyrimidin-5-yl)-8-(4-(1-methyl-4-(trifluoromethyl)-1H-imidazol-2-yl)benzyl)-5-isopropyl-7,8-dihydropteridin-6(5H)-one], in test [1], the IC50 amounted to 0.096 µM. Besides, growth in test [2] was halved (GI50) at 0.0531 µM.
For `COc1ncnc(C2CC2)c1-c1ncc2c(n1)N(Cc1ccc(-c3nc(C(F)(F)F)cn3C)cc1)CN(C)C2=O` [Compound 36, 7-(4-cyclopropyl-6-methoxypyrimidin-5-yl)-3-methyl-1-(4-(1-methyl-4-(trifluoromethyl)-1H-imidazol-2-yl)benzyl)-2,3-dihydropyrimido[4,5-d]pyrimidin-4(1H)-one] the same measures were 0.0827 µM and 0.546 µM.
On the same counts, the results for `COc1ncnc(C2CC2)c1-c1ncc2c(n1)N(Cc1ccc(-n3nc(C(F)(F)F)cc3C)c(F)c1)CC(=O)N2C` [Compound 44, 2-(4-cyclopropyl-6-methoxypyrimidin-5-yl)-5-methyl-8-(3-fluoro-4-(5-methyl-3-(trifluoromethyl)-1H-pyrazol-1-yl)benzyl)-7,8-dihydropteridin-6(5H)-one] are 0.0139 µM and 0.0275 µM.
For `COc1ncnc(C2CC2)c1-c1ncc2c(n1)N(Cc1ccc(-c3nc(C(F)(F)F)cn3C)cc1)CC(=O)N2` [Compound 5, 2-(4-cyclopropyl-6-methoxypyrimidin-5-yl)-8-(4-(1-methyl-4-(trifluoromethyl)-1H-imidazol-2-yl)benzyl)-7,8-dihydropteridin-6(5H)-one], the IC50 in test [1] worked out at 0.0437 µM. For the same compound, the GI50 in test [2] stood at 0.152 µM.
In the case of `CCn1cc(C(F)(F)F)nc1-c1ccc(CN2CC(=O)N(C)c3cnc(-c4c(OC)ncnc4C4CC4)nc32)cc1F` [Compound 68, 2-(4-cyclopropyl-6-methoxypyrimidin-5-yl)-5-methyl-8-(3-fluoro-4-(1-ethyl-4-(trifluoromethyl)-1H-imidazol-2-yl)benzyl)-7,8-dihydropteridin-6(5H)-one], the IC50 in test [1] came to 0.0121 µM. Moreover, the GI50 in test [2] was found to be 0.027 µM.
For `CC(C)c1ncccc1-c1ncc2c(n1)N(Cc1ccc(-c3nc(C(F)(F)F)cn3C)cc1)CCO2` [Compound 1, 2-(2-isopropylpyridin-3-yl)-8-(4-(1-methyl-4-(trifluoromethyl)-1H-imidazol-2-yl)benzyl)-7,8-dihydro-6H-pyrimido[5,4-b][1,4]oxazine] the same measures were 0.018 µM and 0.0229 µM.
For `COc1ncnc(C2CC2)c1-c1ncc2c(n1)N(Cc1ccc(-c3nc(C(F)(F)F)cn3C)cc1)CC(=O)N2CC(F)(F)F` [Compound 25, 2-(4-cyclopropyl-6-methoxypyrimidin-5-yl)-5-(2,2,2-trifluoroethyl)-8-(4-(1-methyl-4-(trifluoromethyl)-1H-imidazol-2-yl)benzyl)-7,8-dihydropteridin-6(5H)-one] the same measures were 0.0272 µM and 0.0848 µM.
On to `Cn1cc(C(F)(F)F)nc1-c1ccc(CN2C(=O)OC(C)(C)c3cnc(-c4c(OC(F)F)ncnc4C4CC4)nc32)cc1F` [Compound 57, 7-(4-cyclopropyl-6-(difluoromethoxy)pyrimidin-5-yl)-1-(3-fluoro-4-(1-methyl-4-(trifluoromethyl)-1H-imidazol-2-yl)benzyl)-4,4-dimethyl-1,4-dihydro-2H-pyrimido[4,5-d][1,3]oxazin-2-one], for which the IC50 in test [1] is 0.0081 µM. In addition, halving of growth in test [2] (GI50) required 0.0198 µM.
For `COc1ncnc(C2CC2)c1-c1ncc2c(=O)n(C)c(=O)n(Cc3ccc(-c4nc(C(F)(F)F)cn4C)cc3)c2n1` [Compound 35, 7-(4-cyclopropyl-6-methoxypyrimidin-5-yl)-3-methyl-1-(4-(1-methyl-4-(trifluoromethyl)-1H-imidazol-2-yl)benzyl)pyrimido[4,5-d]pyrimidine-2,4(1H,3H)-dione] the same measures were 0.0695 µM and 0.364 µM.
Turning to `COc1ncnc(C2CC2)c1-c1ncc2c(n1)N(Cc1ccc(-c3nc(C(F)(F)F)cn3C)c(F)c1)CC(=O)N2C1CC1` [Compound 71, 2-(4-cyclopropyl-6-methoxypyrimidin-5-yl)-8-(3-fluoro-4-(1-methyl-4-(trifluoromethyl)-1H-imidazol-2-yl)benzyl)-5-cyclopropyl-7,8-dihydropteridin-6(5H)-one], the IC50 in test [1] is 0.0716 µM. The compound also had a GI50 in test [2] of 0.0741 µM.
For `COc1ncnc(C2CC2)c1-c1ncc2c(n1)N(Cc1ccc(-c3nc(C(F)(F)F)cn3C)cc1)CC(C)O2` (stereo not shown) [Compound 15, 2-(4-cyclopropyl-6-methoxypyrimidin-5-yl)-6-methyl-8-(4-(1-methyl-4-(trifluoromethyl)-1H-imidazol-2-yl)benzyl)-7,8-dihydro-6H-pyrimido[5,4-b][1,4]oxazine] the same measures were 0.034 µM and 0.0201 µM.
